Columns and labels:
[1] = cited from earlier work; for Kidney selectivity of carrier peptide: even with conjugated drugs
Description: Many proteins and peptides take on an increasingly important role as therapeutics in areas including diabetes diseases mainly due to their potential to bind to targets in a selective manner, thus reducing undesired off‐target effects. ^17 Drug‐targeting delivery to the kidney is an attractive method to increase the pharmaceutical compounds efficacy, ^18 however it represents a promising but underdeveloped area. Recently, galectin‐3 targeted G3C12 peptide and ε‐polylysine derived, synthetic (KKEEE)3K peptide have been identified as novel highly kidney‐specific carriers with exceptional kidney s ...

human recombinant ADAM17 = molecular target: T1, human recombinant ADAM17 (Homo sapiens, UniProt P78536); experiment: ADAM17 activity, SensoLyte 520 TACE Activity Assay Kit; assay type: biochemical; details: 1 μM peptide, 1 μM enzyme, QXL520/5-FAM FRET substrate, 60 minutes, n = 3; Figures 5A, S4E
T1 construct: purchased R&D Systems
T1 sequence (P78536 215-824): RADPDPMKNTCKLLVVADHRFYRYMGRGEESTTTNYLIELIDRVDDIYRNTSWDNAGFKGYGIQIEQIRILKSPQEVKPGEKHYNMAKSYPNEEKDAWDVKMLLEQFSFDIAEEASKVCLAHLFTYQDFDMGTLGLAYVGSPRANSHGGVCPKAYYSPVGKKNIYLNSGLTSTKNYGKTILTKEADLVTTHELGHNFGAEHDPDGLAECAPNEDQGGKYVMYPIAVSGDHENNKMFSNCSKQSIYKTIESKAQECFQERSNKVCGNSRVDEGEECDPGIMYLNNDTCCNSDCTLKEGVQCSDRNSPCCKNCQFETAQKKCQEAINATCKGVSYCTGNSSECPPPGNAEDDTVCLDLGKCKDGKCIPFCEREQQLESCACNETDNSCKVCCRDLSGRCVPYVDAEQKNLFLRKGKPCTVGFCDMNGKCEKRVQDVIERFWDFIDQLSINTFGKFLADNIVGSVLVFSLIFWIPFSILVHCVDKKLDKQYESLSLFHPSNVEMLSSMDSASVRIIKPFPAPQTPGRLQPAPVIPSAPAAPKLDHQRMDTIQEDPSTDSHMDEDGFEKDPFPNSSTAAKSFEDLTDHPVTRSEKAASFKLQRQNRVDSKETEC
Description: ADAM17 activity was determined using the SensoLyte 520 TACE Activity Assay Kit (AnaSpec). 1 μM human recombinant ADAM17 (R&D Systems) was incubated with the QXL520/ 5‐FAM FRET substrate, derived from a sequence surrounding the cleavage site of ADAM17. For inhibitor studies, 1μM TAPI‐0 or 1 μM G3C12, G3C12‐NTIMP3 and G3C12‐T2GNTIMP3 peptides were used. Active ADAM17 cleaves FRET substrate into two separate fragments resulting in an increase of 5‐FAM fluorescence which can be monitored at excitation/emission = 490 nm/520 nm measured in a fluorescence microplate reader (Beckman Coulter DTX 800) continuously every 5 minutes for 60 minutes (10).

human recombinant MMP2 = molecular target: T2, human recombinant MMP2 (Homo sapiens, UniProt P08253); experiment: MMP2 colorimetric Inhibitor Screening Assay kit; assay type: biochemical; details: 1 μM peptide, 0.9 U enzyme, 37°C 60 minutes before substrate, read at 412 nm, n = 3; Figures 5A, S4E
T2 construct: purchased Abcam
T2 sequence (P08253 110-660): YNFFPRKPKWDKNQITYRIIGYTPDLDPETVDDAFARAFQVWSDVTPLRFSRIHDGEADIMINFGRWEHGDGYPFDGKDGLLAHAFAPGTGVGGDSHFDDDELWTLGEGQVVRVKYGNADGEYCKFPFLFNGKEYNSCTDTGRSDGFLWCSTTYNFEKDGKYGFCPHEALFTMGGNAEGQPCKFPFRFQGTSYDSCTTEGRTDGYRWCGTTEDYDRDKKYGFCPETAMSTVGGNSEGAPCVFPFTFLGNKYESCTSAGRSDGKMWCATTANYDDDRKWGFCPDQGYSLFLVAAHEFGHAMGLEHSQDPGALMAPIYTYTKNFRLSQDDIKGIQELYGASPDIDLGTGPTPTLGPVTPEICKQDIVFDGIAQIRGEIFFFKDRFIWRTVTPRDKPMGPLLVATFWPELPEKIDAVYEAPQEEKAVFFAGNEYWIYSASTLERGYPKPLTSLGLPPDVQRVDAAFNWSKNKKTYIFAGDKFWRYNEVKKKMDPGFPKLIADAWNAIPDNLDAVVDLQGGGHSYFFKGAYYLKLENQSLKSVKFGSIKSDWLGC
Description: (§1) The MMP2/9 activities were evaluated using MMP2/MMP9 colorimetric Inhibitor Screening Assay kits (Abcam) under the manufacturer's instruction. In brief, 0.9 U of human recombinant MMP2 or MMP9 was mixed with 1 μM G3C12, G3C12‐NTIMP3, G3C12‐T2GNTIMP3 peptides, or 1.3 μM NNGH inhibitor as […]. The mixture was incubated at 37°C for 60 minutes then substrate was added. The plate was read at 412 nm by infinite F50 microplate reader (TECAN). Continuous recording was made at 1 minute interval for 20 minutes. The experiment was performed in triplicate.

human recombinant MMP9 = molecular target: T3, human recombinant MMP9 (Homo sapiens, UniProt P14780); experiment: MMP9 colorimetric Inhibitor Screening Assay kit; assay type: biochemical; details: 1 μM peptide, 0.9 U enzyme, 37°C 60 minutes before substrate, read at 412 nm, n = 3; Figures 5A, S4E
T3 construct: purchased Abcam
T3 sequence (P14780 94-707): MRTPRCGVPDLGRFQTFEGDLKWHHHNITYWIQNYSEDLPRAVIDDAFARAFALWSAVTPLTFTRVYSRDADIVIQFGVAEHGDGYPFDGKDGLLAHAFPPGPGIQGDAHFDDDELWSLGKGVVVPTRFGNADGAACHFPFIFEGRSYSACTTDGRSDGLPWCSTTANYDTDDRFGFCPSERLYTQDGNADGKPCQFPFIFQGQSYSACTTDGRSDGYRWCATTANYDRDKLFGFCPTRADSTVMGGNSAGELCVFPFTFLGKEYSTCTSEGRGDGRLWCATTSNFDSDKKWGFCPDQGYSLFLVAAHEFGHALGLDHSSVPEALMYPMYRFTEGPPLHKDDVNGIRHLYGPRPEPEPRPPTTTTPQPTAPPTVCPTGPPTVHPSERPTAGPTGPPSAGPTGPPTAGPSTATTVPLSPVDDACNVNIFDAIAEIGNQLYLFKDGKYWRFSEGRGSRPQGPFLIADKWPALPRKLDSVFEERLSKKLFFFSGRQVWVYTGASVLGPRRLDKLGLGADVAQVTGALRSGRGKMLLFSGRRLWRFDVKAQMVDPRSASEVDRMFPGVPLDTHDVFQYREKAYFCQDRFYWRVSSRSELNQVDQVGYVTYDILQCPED
Description: as §1

diabetic DBA/2J mice = experiment: Peptide treatment of STZ diabetic mice: toxicity, behaviour, blood glucose; assay type: in vivo; details: STZ diabetic DBA/2J mice, 2 mg/kg iv, two injections per week for 8 weeks
Description: Diabetes was induced in 8‐week‐old mice by a multiple low‐dose streptozotocin (STZ) (Sigma) injection. STZ was given intraperitoneally (ip) at 50 mg/kg per day (freshly made in Na‐Citrate buffer, pH 4.5) for 5 consecutive days after a 4 hours fast. Control animals were treated with Na‐citrate buffer alone. Diabetes was defined as fed blood glucose level ≥250 mg/dL using a glucometer (OneTouch Ultra, LifeScan).
At 5 weeks after STZ or Na‐Citrate buffer administration, DBA/2J mice were randomly divided into the following four treatment groups: (1) vehicle buffer (PBS), (2) G3C12 free peptide, (3) G3C12‐NTIMP3 peptide, and (4) G3C12‐T2GNTIMP3 peptide. Peptides were dissolved in sterile PBS and administered intravenously (iv) by retro‐orbital injection (2 mg/kg body weight) in mice two times per week for 8 weeks.

Substance: (KKEEE)3K [ε‐polylysine derived, synthetic kidney‐specific carrier peptide]
- Kidney accumulation of carrier peptide [1]: rapid kidney accumulation
- Toxic profile of carrier peptide [1]: no toxic profile
- Kidney selectivity of carrier peptide [1]: exceptional kidney selectivity

Substance: ANTPCGPYTHDCPVKR [G3C12]
- Inhibition of human ADAM17 enzyme activity (percentage of residual activity) (human recombinant ADAM17): did not show any inhibitory activity
- Inhibition of human MMP2 enzyme activity (percentage of residual activity) (human recombinant MMP2): did not show any inhibitory activity
- Inhibition of human MMP9 enzyme activity (percentage of residual activity) (human recombinant MMP9): did not show any inhibitory activity
- Changes in behavioral or nutritional status (diabetic DBA/2J mice): Neither have any changes been observed
- Toxic effects (diabetic DBA/2J mice): No toxic effects were observed
- Kidney accumulation of carrier peptide [1]: rapid kidney accumulation
- Toxic profile of carrier peptide [1]: no toxic profile
- Kidney selectivity of carrier peptide [1]: exceptional kidney selectivity

From publication PMC7862169, “Restoration of renal TIMP3 levels via genetics and pharmacological approach prevents experimental diabetic nephropathy” (Clinical and Translational Medicine, 2021)
